In one assay the target is T1, recombinant human MAP4K4 (Homo sapiens, UniProt O95819).
T1 construct: Human MAP4K4 kinase domain (aa 1-328); purchased Invitrogen PV3687
The assay is described as follows: In vitro MAP4K4 kinase activity assay (HTRF Transcreener ADP). In kind it is biochemical. The following applies: MAP4K4; HTRF Transcreener ADP assay; read-out: pIC50 (converted). The procedure: MAP4K4 kinase activity was monitored using the CisBio HTRF Transcreener ADP assay, a competitive immunoassay with a reproducible Z’ > 0.6. In the detection step, endogenous ADP and d2-labeled ADP compete for binding an anti-ADP monoclonal antibody labeled with Eu^3+ cryptate. […] Assays were run in Greiner low volume plates with a final reaction volume of 10 μl. Percent inhibition was calculated from 100% activity of MAP4K4 (DMSO only) and 0% activity (no enzyme added). Data were either reported as % inhibition at a single dose or as pIC50 values derived from dose response curves (pIC50 = -log[IC50]).

A further assay deals with vCor.4U hiPSC-CMs. The assay is described as follows: Calcium transients (FLIPR Tetra, EarlyTox Cardiotoxicity dye). In kind it is cell-based, human. As to conditions: Homo sapiens; calcium cycling; vCor.4U; 24 h; read-out: half-maximal loss of peak area and peak height. The method, then: Calcium transients in hiPSC-CMs were assessed using FLIPR Tetra instrumentation and Early Tox Cardiotoxicity kits (Molecular Devices). vCor.4U cells were subjected to graded concentrations of menadione and the MAP4K4 inhibitors as described for the viability assays. Compound concentrations and time course are denoted in the figure and figure legend. Vehicle controls were used throughout. Cells were incubated for 2-3 hr at 37°C in 5% CO2, using 3 μL well^-1 of EarlyTox Cardiotoxicity Kit concentrate as the fluorescent calcium indicator dye. Plates were then removed from the incubator and allowed to reach room temperature. Intracellular calcium oscillations were monitored using a FLIPR Tetra system with excitation LED bank 470-495 nm and emission filter set 515-575 nm (Molecular Devices). Fluorescence intensity signals were acquired for 600 reads at 1.2 ms intervals. Beat frequency, median peak height, median peak width and total peak area were calculated and compared with the baseline control and with menadione alone. Protection of calcium cycling by DMX-4804 was confirmed in 3 independent experiments with overlapping conditions, and results are shown for a full dose-response study, analyzing 4 wells for each point.

Another assay has as its system vCor.4U cells. The assay is described as follows: Mitochondrial function (Seahorse XFe24, OCR and ECAR). In kind it is cell-based, human. As to conditions: menadione 15 μM; 2 h. The method, then:
Mitochondrial function in hiPSC-CMs was determined using a Seahorse XFe24 Analyzer. vCor.4U cells (60,000 well^-1) were transferred to 0.1% gelatin-coated XF24 plates and maintained for 5 d, as described above. On day 6, DMX-5804 was added 45 min prior to challenge with menadione for 2 h. The medium was replaced 1 hr before the assay, using bicarbonate-free Seahorse assay medium (8.3 g L^-1 DMEM Base (Sigma-Aldrich), 10 mM glucose, 2 mM L-alanyl-L-glutamine dipeptide (Glutamax-1, GIBCO), 1 mM sodium pyruvate (GIBCO), pH 7.4). Cells were maintained at 37°C without supplemental CO2 starting 1 hr before the assay (IL10 incubator, VWR). For each state measured, three assay cycles were performed (4 min mixing, 2 min wait, and 2 min measurement periods, with readings every 15 s). The basal oxygen consumption rate (OCR) and extracellular acidification rate (ECAR) were determined, followed by sequential injection of 1 μM oligomycin A (Abcam) to inhibit ATP synthase, 0.5 μM […] (FCCP; Abcam) to uncouple oxidative phosphorylation, and 1 μM antimycin A/rotenone (Sigma, Abcam) to inhibit mitochondrial complex III and I. For each condition, 12 wells were tested, comprising 4 independent experiments.

The test system of a further assay is vCor.4U cardiomyocytes. Put plainly: CellTiter-Glo viability after oxidative stress (H2O2 or menadione). It is filed as cell-based, human. As to conditions: vCor.4U; 400 μM H2O2 1 h after compound; 10 μM. The method, then:
vCor.4U cardiomyocytes were cultured, except where noted, on white (viability) or black (FLIPR) clear-bottom 384-well plates, treated for 1 hr with […] fibronectin (Sigma-Aldrich). To minimize batch to batch variation, thawed cells first were transferred from cryo-vials into sterile 250 mL flasks containing pre-warmed vCor.4U maintenance medium, for 3-5 d. The cells were then plated at 1000 well^-1 for viability assays or 5000 cells well^-1 for FLIPR experiments, all in 40 μl well^-1 of the maintenance medium. Cells were cultured in Axiogenesis complete medium followed by incomplete medium, were subjected to oxidative stress ± test compounds on day 3, and were assayed on day 4 (Figures 4D and 4E). Alternatively, complete medium was replaced on day 2 of culture with 40 μl of DMEM high Glucose (no FCS or pyruvate), followed by removal and replacement of 20 μl every 2 d for 10 d (Figures 4A–4C).
H2O2, menadione (Sigma-Aldrich), doxorubicin (Calbiochem), and C2-ceramide (N-acetyl-D-sphingosine) were used at the indicated concentrations. MAP4K4 inhibitors were serially diluted in DMSO, transferred to an intermediate plate using assay medium as a diluting agent, and added at a final concentration of 0.1% DMSO. MAP4K4 inhibitors were added to cultured cardiomyocytes 1 hr before the cell death inducers, except where noted, and remained present for the duration of the experiment.
For cell-based dose-response experiments, MAP4K4 inhibitors were prepared in 96-well polypropylene plates as serial dilutions in DMSO of 10 mM stock solutions. To a sterile 96-well intermediate plate, 1 μl of each well was added to 99 μl of medium, the samples were mixed, and 5 μl well^-1 from the intermediate plate were transferred to the cultured cells (final concentration, 0.1% DMSO; final top concentration of inhibitor, 10 μM). Assay plates were gently centrifuged then incubated for 1 hr at 37°C. The death triggers menadione, H2O2 and doxorubicin were prepared fresh on the day of treatment at 10x the final concentrations and 5 μl well^-1 were added as appropriate. Assay plates were gently centrifuged and then incubated at 37°C for the duration of treatment.
Assay plates were removed from the incubator, allowed to reach room temperature, inoculated with 20 μl well^-1 CTG reagent (Promega), and gently agitated for 30 min. Prior to adding CTG, 2 μl well^-1 of the culture medium was removed and placed into a white 384-well low volume plate for measurement of cardiac troponin release by AlphaLISA (below). Luminescence due to ATP, proportional to cell number, was captured on a PHERAstar Plus microplate reader (BMG Labtech). Normalized values were plotted against the log concentration of death signal or inhibitor, and a 4-parameter fit was used to identify IC50 and EC50, respectively.

T1 sequence (O95819 1-328): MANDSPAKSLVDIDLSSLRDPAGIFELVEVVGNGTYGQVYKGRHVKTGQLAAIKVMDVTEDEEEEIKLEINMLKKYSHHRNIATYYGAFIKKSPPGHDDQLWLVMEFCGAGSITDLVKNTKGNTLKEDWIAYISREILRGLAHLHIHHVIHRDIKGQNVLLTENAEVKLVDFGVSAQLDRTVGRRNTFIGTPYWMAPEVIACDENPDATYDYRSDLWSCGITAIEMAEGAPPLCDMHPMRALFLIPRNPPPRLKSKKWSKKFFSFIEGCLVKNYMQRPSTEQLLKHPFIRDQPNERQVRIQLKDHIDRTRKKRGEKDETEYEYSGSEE

Take `O=c1[nH]cnc2c1ccn2-c1ccccc1` [DMX-4815]: at recombinant human MAP4K4, the IC50 was 7.94 µM. Take `CC1=CC(=O)c2ccccc2C1=O` [menadione]: in the assay on vCor.4U hiPSC-CMs, the IC50 is 16 µM. In addition, the “Maximum oxidative capacity, of control levels” value in the assay with vCor.4U cells is given as 15%. Turning to `O=c1[nH]cnc2[nH]cc(-c3ccccc3)c12` [DMX-4850], the IC50 on recombinant human MAP4K4 was 0.794 µM. Consider `COCCc1ccc(OCC(O)CNC(C)C)cc1` (centres unmarked) [metoprolol], for which, in the assay with vCor.4U cardiomyocytes, the “human cardiomyocyte survival (rescue of viability)” value is “promoted”.

Values taken from PMC6458995, “MAP4K4 Inhibition Promotes Survival of Human Stem Cell-Derived Cardiomyocytes and Reduces Infarct Size In Vivo” (Cell Stem Cell, 2019).
